Laboratory results: patent US10202388B2, “Fused-ring compounds, pharmaceutical composition and uses thereof” (SHANGHAI DE NOVO PHARMATECH CO., LTD., priority 2015, dated 2019)

molecular target: HeLa cell based IDO1 (Homo sapiens (Human), UniProt P14902); test: Three-point IDO1 cellular assay (HeLa, 10, 100 and 1000 nM); details: HeLa cells, at 100 nM, 100 ng/mL IFN-γ, 18 hours
Protocol: To perform the 3-point HeLa cell based IDO1 assay, HeLa cells were seeded at 25,000 cells per well into 96-well microplate in 100 μL of growth medium. Cells were incubated at 37° C. and 5% CO2 overnight. The next day 100 μL per well of diluted inhibitor in growth medium at 10, 100 and 1000 nM, respectively, was added at a final concentration of 100 ng/ML human IFN-γ. Cells were incubated at 37° C. in a CO2 incubator for 18 hours. […] The plate was incubated at 50° C. for 30 min to hydrolyze N-formylkynurenine produced by IDO1 to kynurenine. The plate was then centrifuged at 2500 rpm for 10 min to remove sediments. 100 μl of supernatant per well was transferred to another 96-well plate and mixed with 100 μL of 2% (w/v) 4-(Dimethylamino) benzaldehyde in acetic acid. The plate was incubated at room temperature for 10 minutes, the yellow color derived from kynurenine was recorded by measuring absorbance at 480 nm using a microplate reader (TECAN Infinite M1000 Pro). Cell based assays were performed in triplicate at each concentration. The absorbance data were analyzed using the computer software, Graphpad Prism. In the absence of the compound and presence of 100 ng/ML IFN-γ, the absorbance (At) in each data set was defined as 100%. The absorbance of medium blank (Ab) in each data set was defined as 0%. The percent absorbance in the presence of each compound was calculated according to the following equation: % Absorbance=(A−Ab)/(At−Ab), where A=the absorbance in the presence of the compound and IFN-γ, Ab=the absorbance of medium blank, and At=the absorbance in the absence of the compounds and presence of IFN-γ. The values of % absorbance versus the compound concentrations were then determined.

HeLa cell based IDO1, sequence (P14902 whole entry): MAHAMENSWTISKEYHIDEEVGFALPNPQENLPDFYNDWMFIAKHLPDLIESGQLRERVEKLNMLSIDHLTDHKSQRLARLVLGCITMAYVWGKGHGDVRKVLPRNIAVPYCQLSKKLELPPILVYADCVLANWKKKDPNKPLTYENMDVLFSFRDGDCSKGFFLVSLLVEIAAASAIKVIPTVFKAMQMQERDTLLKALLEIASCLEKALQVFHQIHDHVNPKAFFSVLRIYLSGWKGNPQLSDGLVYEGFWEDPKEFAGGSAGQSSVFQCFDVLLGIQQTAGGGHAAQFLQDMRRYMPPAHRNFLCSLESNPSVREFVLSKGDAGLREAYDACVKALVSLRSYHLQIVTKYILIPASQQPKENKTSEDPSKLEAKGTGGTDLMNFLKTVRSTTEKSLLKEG

inhibition values of % | inhibition at 0.1 µM [%] | SMILES
greater than 50% |  | OC(CC1c2c(F)cccc2-c2cncn21)C12CC3CC(C1)C(Nc1nc4cccnc4o1)C(C3)C2 (centres unmarked) [Compound 127]
 | > 50 | OC(CC1c2c(F)cccc2-c2cncn21)C12CC3CC(C1)C(OCCN1CCOCC1)C(C3)C2 (centres unmarked) [Compound 135A]
 | > 50 | O=C(CC1CCCCC1)NC12CC3CC(C1)C(C(O)CC1c4c(F)cccc4-c4cncn41)C(C3)C2 (centres unmarked) [Compound 192A]

same assay, conditions: HeLa cells, at 1000 nM, 100 ng/mL IFN-γ, 18 hours

inhibition at 1 µM [%] | SMILES
> 50 | N#Cc1ccc(C2(O)C3CC4CC2CC(C(O)CC2c5c(F)cccc5-c5cncn52)(C4)C3)cc1 (centres unmarked) [Compound 145]
> 50 | O=S(=O)(Cc1ccccc1)N1C2CC3CC1CC(C(O)CC1c4c(F)cccc4-c4cncn41)(C3)C2 (centres unmarked) [Compound 205]
> 50 | OC(CC1c2c(F)cccc2-c2cncn21)C12CC3CC(C1)C(O)(c1cccnc1)C(C3)C2 (centres unmarked) [Compound 146]

molecular target: HeLa cell IDO1 (Homo sapiens (Human), UniProt P14902); test: HeLa cell based IDO1 inhibition assay (kynurenine readout, IFN-γ induced); details: HeLa cells
Protocol: HeLa cell line was purchased from ATCC, cultured in MEM/EBSS medium supplemented with 10% FBS, penn-step (100,000 U/L), non-essential amino acid (0.1 Mm), sodium pyruvate (1.0 Mm). Cells were cultured at 37° C., 95% humidity and 5% CO2. […] The detailed experimental method is as follow:
25,000 HeLa cells were placed on 96-well plates. Each well contained 100 μl culture medium, subsequently IFN-γ and test compounds at specific concentrations (concentration range between 10 μM and 1 Nm, so that the final volume of culture medium was 200 μL) were added and IFN-γ was used to induce IDO1 expression. After incubation, 140 μL supernatant was transferred to 96-well plates. After adding 6.1 N TCA (10 μL), the plates were continuously incubated at 50° C. for 30 min, to hydrolyze N-formylkynurenine produced by IDO to kynurenine. The reaction solution was then centrifuged at 2500 rpm for 10 min to remove precipitate. 100 μL/well supernatant was then transferred to another 96-well plate. 100 μL of 2% (w/v) 4-N,N-dimethyl aminobenzaldehyde acetic acid solution was added and incubated at room temperature for 10 min. The yellow color derived from kynurenine was recorded by measuring absorbance at 480 nm using a microplate reader (TECAN Infinite M1000 Pro).

HeLa cell IDO1, sequence (P14902 whole entry): as above

IC50 [µM] | SMILES
< 0.1 | O=S(=O)(NC1C2CC3CC1CC(C(O)CC1c4c(F)cccc4-c4cncn41)(C3)C2)c1ccccc1 (single isomer, unassigned) [Compound 47B]
0.1 to 0.5 | O=C(Nc1ccccc1)NC12CC3CC(C1)C(C(O)CC1c4ccccc4-c4cncn41)C(C3)C2 (centres unmarked) [Compound 162A]
< 0.1 | CS(=O)(=O)NC12CC3CC(C1)C(C(O)CC1c4ccccc4-c4cncn41)C(C3)C2 (single isomer, unassigned) [Compound 168A]
1 to 10 | CS(=O)(=O)NC12CC3CC(C1)C(C(O)CC1c4ccccc4-c4cncn41)C(C3)C2 (single isomer, unassigned) [Compound 168B]
< 0.1 | O=C(Nc1ccc(F)c(F)c1)NC1C2CC3CC1CC(C(O)CC1c4c(F)cccc4-c4cncn41)(C3)C2 (centres unmarked) [Compound 108A]
< 0.1 | O=S(=O)(NC1C2CC3CC1CC(C(O)CC1c4c(F)cccc4-c4cncn41)(C3)C2)c1ccccc1 (single isomer, unassigned) [Compound 47A]
< 0.1 | OC(CC1c2ccccc2-c2cncn21)C12CC3CC(C1)C(Nc1nc4ccccc4s1)C(C3)C2 (single isomer, unassigned) [Compound 125A]
0.1 to 0.5 | CCS(=O)(=O)NC12CC3CC(C1)C(C(O)CC1c4ccccc4-c4cncn41)C(C3)C2 (centres unmarked) [Compound 167A]
0.5 to 1 | N#Cc1ccc(S(=O)(=O)NC2C3CC4CC2CC(C(O)CC2c5c(F)cccc5-c5cncn52)(C4)C3)cc1 (single isomer, unassigned) [Compound 69B]
< 0.1 | O=S(=O)(CC1CCC1)NC1C2CC3CC1CC(C(O)CC1c4c(F)cccc4-c4cncn41)(C3)C2 (single isomer, unassigned) [Compound 67B]
< 0.1 | OC(CC1c2ccccc2-c2cncn21)C12CC3CC(C1)C(Nc1nc4ccccc4s1)C(C3)C2 (single isomer, unassigned) [Compound 125B]
< 0.1 | N#Cc1ccc(S(=O)(=O)NC2C3CC4CC2CC(C(O)CC2c5c(F)cccc5-c5cncn52)(C4)C3)cc1 (single isomer, unassigned) [Compound 69A]
< 0.1 | OC(CC1c2c(F)cccc2-c2cncn21)C12CC3CC(C1)C(Nc1nc4ccccc4o1)C(C3)C2 (centres unmarked) [Compound 124A]
< 0.1 | N#Cc1ccc(S(=O)(=O)NC23CC4CC(C2)C(C(O)CC2c5ccccc5-c5cncn52)C(C4)C3)cc1 (single isomer, unassigned) [Compound 165A]
0.5 to 1 | N#Cc1ccc(S(=O)(=O)NC23CC4CC(C2)C(C(O)CC2c5ccccc5-c5cncn52)C(C4)C3)cc1 (single isomer, unassigned) [Compound 165B]
< 0.1 | O=C(Nc1ccccc1)NC1C2CC3CC1CC(C(O)CC1c4c(F)cccc4-c4cncn41)(C3)C2 (single isomer, unassigned) [Compound 55A]
< 0.1 | CC1(O)C2CC3CC1CC(C(O)CC1c4ccccc4-c4cncn41)(C3)C2 (centres unmarked) [Compound 11A]
< 0.1 | O=C(Nc1ccc(F)cc1)NC1C2CC3CC1CC(C(O)CC1c4c(F)cccc4-c4cncn41)(C3)C2 (centres unmarked) [Compound 93A]
0.1 to 0.5 | O=C(Nc1ccccc1)NC1C2CC3CC1CC(C(O)CC1c4c(F)cccc4-c4cncn41)(C3)C2 (single isomer, unassigned) [Compound 55B]
< 0.1 | O=S(=O)(NC1C2CC3CC1CC(C(O)CC1c4c(F)cccc4-c4cncn41)(C3)C2)C1CC1 (centres unmarked) [Compound 81A]

Continued, molecule first:

SMILES | IC50 [µM]
OC(CC1c2ccccc2-c2cncn21)C12CC3CC(C1)C(Nc1nc4ccccc4o1)C(C3)C2 (centres unmarked) [Compound 123] | < 0.1
CS(=O)(=O)Nc1ccc(S(=O)(=O)NC2C3CC4CC2CC(C(O)CC2c5c(F)cccc5-c5cncn52)(C4)C3)cc1 (centres unmarked) [Compound 87] | 0.5 to 1
O=S(=O)(Cc1ccc(F)cc1)NC1C2CC3CC1CC(C(O)CC1c4c(F)cccc4-c4cncn41)(C3)C2 (centres unmarked) [Compound 71] | < 0.1
O=C(Nc1ccccc1)N1C2CC3CC1CC(C(O)CC1c4c(F)cccc4-c4cncn41)(C3)C2 (centres unmarked) [Compound 208] | < 0.1
N#Cc1ccc(NC(=O)NC2C3CC4CC2CC(C(O)CC2c5c(F)cccc5-c5cncn52)(C4)C3)cc1 (centres unmarked) [Compound 100] | < 0.1
CC(=O)Nc1ccc(NC(=O)NC2C3CC4CC2CC(C(O)CC2c5ccccc5-c5cncn52)(C4)C3)cc1 (centres unmarked) [Compound 102] | 1 to 10
CCS(=O)(=O)NC1C2CC3CC1CC(C(O)CC1c4c(F)cccc4-c4cncn41)(C3)C2 (centres unmarked) [Compound 66] | < 0.1
Cc1ccc(NC(=O)NC2C3CC4CC2CC(C(O)CC2c5c(F)cccc5-c5cncn52)(C4)C3)cc1 (centres unmarked) [Compound 97] | < 0.1
CS(=O)(=O)c1ccc(NC(=O)NC2C3CC4CC2CC(C(O)CC2c5c(F)cccc5-c5cncn52)(C4)C3)cc1 (centres unmarked) [Compound 101] | 0.1 to 0.5

molecular target: Human recombinant IDO1 (Homo sapiens (Human), UniProt P14902); test: IDO1 enzymatic assay (UV absorption at 321 nm); assay type: biochemical; details: human recombinant IDO1, 80 min incubation, room temperature; read-out: hIDO1 IC50
Protocol: The detailed experimental method is as follow:
The compounds described in this disclosure were dissolved in 10% DMSO to predefined concentration. All of the reactions were conducted at room temperature in this disclosure. Human recombinant IDO1 (BPS Bioscience) was added so that its concentration was 200 nm in the reaction buffer solution (200 μL). […] 10 μL test compound solution was added into the above reaction solution (200 μL), so that the final concentration of DMSO in all reaction wells was 0.5%. % concentration was volume %. After 80 min incubation of the reaction solution, the UV absorbance was measured using TECAN Infinite M1000 plate reader. For the negative control (blank), 10 μl of the assay buffer was added instead of the IDO1
All reagents (excluding human recombinant IDO1) were purchased from Sigma Aldrich, MO, USA.
The percent activity in the presence of each compound was calculated according to the following equation: % activity=[(A−Ab)/(At−Ab)]×100, where A=the absorption signal in the presence of the compound, Ab=the absorption signal of blank, At=the absorption signal in the absence of the compound. […] The IC50 was calculated using non-linear regression in Graph Pad Prism® 4.

Human recombinant IDO1, sequence (P14902 whole entry): as above

IC50 [µM] | SMILES
0.1 to 0.5 | OC1C2CC3CC1CC([C@@H](O)CC1c4ccccc4-c4cncn41)(C3)C2 (some centres unmarked) [Compound 10B]
0.1 to 0.5 | OC1C2CC3CC1CC([C@@H](O)CC1c4c(F)cccc4-c4cncn41)(C3)C2 (some centres unmarked) [Compound 26B]
1 to 10 | O=C(C[C@@H]1c2ccccc2-c2cncn21)C12CC3CC(CC(C3)C1)C2 (single isomer, unassigned) [Compound 1-4]

Continued, molecule first:

SMILES | IC50 [µM]
OC(CC1c2cccnc2-c2cncn21)C1CCCCC1 (centres unmarked) [compound 2] | 1 to 10
OC(CC1c2cccc(F)c2-c2cncn21)C12CC3CC(CC(C3)C1)C2 (centres unmarked) [compound 8] | 0.1 to 0.5
OC1C2CC3CC1CC([C@@H](O)CC1c4c(F)cccc4-c4cncn41)(C3)C2 (some centres unmarked) [Compound 26A-2] | 1 to 10
OC(Cn1c2ccccc2n2cncc12)C12CC3CC(CC(C3)C1)C2 (centres unmarked) [Compound 40] | 1 to 10
OC1C2CC3CC1CC(C(O)CC1c4ccccc4-c4cncn41)(C3)C2 (centres unmarked) [Compound 10A-3] | 1 to 10
OC1C2CC3CC1CC([C@@H](O)CC1c4c(F)cccc4-c4cncn41)(C3)C2 (some centres unmarked) [Compound 23A-4] | 1 to 10
CC1(O)C2CC3CC1CC([C@@H](O)CC1c4ccccc4-c4cncn41)(C3)C2 (some centres unmarked) [Compound 14A-1] | 1 to 10
OC(CC1c2cc(F)ccc2-c2cncn21)C12CC3CC(CC(C3)C1)C2 (centres unmarked) [compound 7] | 0.1 to 0.5
OC(CC1c2ncccc2-c2cncn21)C1CCCCC1 (centres unmarked) [compound 3] | 0.1 to 0.5
